One test relates to DBA/2 mice. Put plainly: anticonvulsant protection (DBA2 mouse model of anticonvulsant efficacy, sound-induced seizures). Also noted: Anticonvulsant % Protect 2 hr: concentration or dose not given beside the values. As to conditions: for Anticonvulsant % Protect 2 hr: Table 1; for Anticonvulsant % Protect* 1h / Anticonvulsant % Protect* 2h: dosed at 30 mg/kg PO. It is filed as in vivo.

Test [1] can be described thus: anxiolytic activity relative to pregabalin (model not given). In kind it is in vivo. To be noted: dosed at 30 mg/kg PO; percent of pregabalin activity.

As for `CC(C)CC(CN)CC(=O)O` (centres unmarked) [reference compound], in the test with DBA/2 mice, the “Anticonvulsant % Protect 2 hr” value turned out to be 100%.

For the molecule `CCC[C@@H](C)C[C@H](CN)CC(=O)O.Cl` [(3S,5R)-3-Aminomethyl-5-methyl-octanoic acid hydrochloride], in the test on DBA/2 mice, the “Anticonvulsant % Protect* 1h” value is on record as 100% and the “Anticonvulsant % Protect* 2h” value is listed as 100%. With `CCCC(C)CC(CN)CC(=O)O` (centres unmarked) [3-Aminomethyl-5-methyloctanoic acid, 3-Aminomethyl-5-methyl-octanoic acid], the “Anticonvulsant % Protect* 2h” value in the test on DBA/2 mice is 100%.

With `CCC(C)CC(CN)CC(=O)O` (centres unmarked), the “Anticonvulsant % Protect 2 hr” value with DBA/2 mice stood at 100%.

With `CC[C@@H](C)[C@H](CN)CC(=O)O`, in the test on DBA/2 mice, the “Anticonvulsant % Protect 2 hr” value came to 0%.

Consider `CC(C)[C@@H](C)[C@@H](CN)CC(=O)O` [(3S,4R)3-Aminomethyl-4,5-dimethyl-hexanoic acid], for which the “Anxiolytic Activity* % Preg. Act.” value in test [1] amounted to 12%. Take `CCCCC[C@H](C)C[C@H](CN)CC(=O)O` [(3S,5S)-3-Aminomethyl-5-methyl-decanoic acid]: the “Anticonvulsant % Protect* 1h” value with DBA/2 mice is recorded as 0%.

Take `CC(C)[C@H](C)[C@H](CN)CC(=O)O` [(3R,4S)-3-Aminomethyl-4,5-dimethyl-hexanoic acid]: the “Anxiolytic Activity* % Preg. Act.” value in test [1] came out at 58%. As to `CC(C)[C@@H](C)C(CN)CC(=O)O` (some centres unmarked), the “Anticonvulsant % Protect 2 hr” value in the test on DBA/2 mice stood at 100%. Same read-out and setting: the same measure for `CCC(CC)C(CN)CC(=O)O` (centres unmarked): 20%.
